Test results taken from PMC4363291 (The Journal of investigative dermatology, 2014).
Where a name gives a salt, the structure may show the parent alone.

Tests used:
Assay in all cases: voltage-clamp of hemichannel currents in Xenopus oocytes
Format in all cases: cell-based
[1] = target: connexin26 (Cx26) hemichannel (Homo sapiens, UniProt P29033, A40V)
[2] = target: T1, connexin26 (Cx26) hemichannel (Homo sapiens, UniProt P29033, G45E)
[3] = target: connexin26 (Cx26) hemichannel (Homo sapiens, UniProt P29033, D50A)
[4] = target: connexin26 (Cx26) hemichannel (Homo sapiens, UniProt P29033, D50N)
[5] = target: T1, connexin26 (Cx26) hemichannel; remark: listed apart in the source

| % [1] | IC50 [2] [µM] | % [3] | % [4] [% reduction at 30µM] | % [5] [% reduction at 30µM] | Compound |
| --- | --- | --- | --- | --- | --- |
| 50% or better suppression at 30µM | ~16 | 50% or better suppression at 30µM | 69±15 | – | O[C@@H](c1cc(C(F)(F)F)nc2c(C(F)(F)F)cccc12)[C@H]1CCCCN1 (relative stereo) [MFQ, [R*,S*]-[2,8-Bis-trifluoromethyl-quinolin-4-yl]-piperidin-2-yl-methanolhydrochloride] |
| – | – | – | 73±11 | 59±13 | OC(c1ccccn1)c1cc(C(F)(F)F)nc2c(C(F)(F)F)cccc12 (stereo not drawn) [QU026, [2,8-Bis-trifluoromethyl-quinolin-4-yl]-pyridin-2-yl-methanol] |
